From patent publication US10654828B2 (NOVARTIS AG, priority 2017, dated 2020)

Assays:
FoxO3a = FoxO3a inhibition: GFP-FoxO3a nuclear to cytoplasmic translocation reporter assay; assay type: cell-based; settings: Homo sapiens, U2OS, 0.5 h, U2OS GFP-FoxO3a H212R cells, serum starved overnight, compound 30 minutes; ratio of nuclear to cytosolic GFP intensity; DMSO control 0%; read-out: FoxO AC50
Protocol: (§1) Phosphorylation of AKT on S473 and FoxO3a nuclear to cytoplasmic translocation were used as readouts of PI3K/Akt/mTOR pathway activation downstream of growth factor signaling.
(§2) Reporter cell line. U2OS GFP-FoxO3a H212R reporter cell line was established by transducing U2OS cells with the retroviral plasmid pLEGFP-C1 containing FoxO3a H212R transgene and selecting for G418 resistant clones.
(§3) Reporter assay. U2OS GFP-FoxO3a H212R cells were plated in 384-well plates at 4000 cells per well in 30 microliters of McCoy's 5 A medium containing 10% FBS. On day 1 the cells were washed with serum free medium and serum starved overnight. On day 2 the cells were treated with different doses of the compounds for 30 minutes, fixed with 4% Paraformaldehyde for 1 hour and stained with Phospho-AKT (Ser473) antibody (Cell Signaling Technology, catalog #4060) overnight at 4 degrees Celsius. After nuclei staining with Hoechst 33342 (Life Technologies, catalog # H3570) the plates were imaged with InCell 2000 (GE Healthcare Bio-Sciences). FoxO3a inhibition activity is calculated as the ratio of nuclear to cytosolic GFP intensity in percent. AKT activation is measured as the total cellular intensity of Phospho-AKT antibody staining in percent. DMSO control is set as 0% activity.

AKT = AKT activation: Phospho-AKT (Ser473) antibody staining in reporter cells; assay type: cell-based; settings: Homo sapiens, U2OS, 0.5 h, U2OS GFP-FoxO3a H212R cells, serum starved overnight, compound 30 minutes; total cellular intensity of Phospho-AKT (Ser473) staining; DMSO control 0%
Protocol: as §1, §2, §3

SMILES	AC50 (FoxO3a)	AC50 (AKT)
Cc1cc(C(N)=O)nn1-c1ccc2c(ccn2Cc2ccc(-c3ccc4cn(C)nc4c3)cc2)c1 [Example 1-10, 5-methyl-1-(1-(4-(2-methyl-2H-indazol-6-yl)benzyl)-1H-indol-5-yl)-1H-pyrazole-3-carboxamide]	72 nM	234 nM
Cc1cc(C(N)=O)nn1-c1ccc2c(ccn2Cc2ccc(-c3ccc(S(=O)(=O)N4CCN(C)CC4)cc3)cc2)c1 [Example 1-11, 5-methyl-1-(1-((4′-((4-methylpiperazin-1-yl)sulfonyl)-[1,1′-biphenyl]-4-yl)methyl)-1H-indol-5-yl)-1H-pyrazole-3-carboxamide]	69 nM	388 nM
Cc1cc(C(N)=O)nn1-c1ccc2c(ccn2Cc2ccc(-c3cccc(C(=O)N4CCN(C)CC4)c3)cc2)c1 [Example 1-12, 5-methyl-1-(1-((3′-(4-methylpiperazine-1-carbonyl)-[1,1′-biphenyl]-4-yl)methyl)-1H-indol-5-yl)-1H-pyrazole-3-carboxamide]	124 nM	346 nM
Cc1cc(C(N)=O)nn1-c1ccc2c(ccn2Cc2ccc(-c3ccc(S(=O)(=O)N(C)C)cc3)cc2)c1 [Example 1-13, 1-(1-((4′-(N,N-dimethylsulfamoyl)-[1,1′-biphenyl]-4-yl)methyl)-1H-indol-5-yl)-5-methyl-1H-pyrazole-3-carboxamide]	84 nM	230 nM
Cc1cc(C(N)=O)nn1-c1ccc2c(ccn2Cc2ccc(-c3ccc4cn[nH]c4c3)cc2)c1 [Example 1-14, 1-(1-(4-(1H-indazol-6-yl)benzyl)-1H-indol-5-yl)-5-methyl-1H-pyrazole-3-carboxamide]	284 nM	1050 nM
Cc1cc(C(N)=O)nn1-c1ccc2c(ccn2Cc2ccc(-c3ccc(O)c(F)c3)cc2)c1 [Example 1-15, 1-(1-((3′-fluoro-4′-hydroxy-[1,1′-biphenyl]-4-yl)methyl)-1H-indol-5-yl)-5-methyl-1H-pyrazole-3-carboxamide]	56 nM	172 nM
Cc1cc(C(N)=O)nn1-c1ccc2c(ccn2Cc2ccc(-c3cnc4[nH]ccc4c3)cc2)c1 [Example 1-16, 1-(1-(4-(1H-pyrrolo[2,3-b]pyridin-5-yl)benzyl)-1H-indol-5-yl)-5-methyl-1H-pyrazole-3-carboxamide]	147 nM	451 nM
Cc1cc(C(N)=O)nn1-c1ccc2c(ccn2Cc2ccc(-c3ccc4[nH]ncc4c3)cc2)c1 [Example 1-17, 1-(1-(4-(1H-indazol-5-yl)benzyl)-1H-indol-5-yl)-5-methyl-1H-pyrazole-3-carboxamide]	88 nM	199 nM
Cc1cc(C(N)=O)nn1-c1ccc2c(ccn2Cc2ccc(-c3ccc4cnccc4c3)cc2)c1 [Example 1-18, 1-(1-(4-(isoquinolin-6-yl)benzyl)-1H-indol-5-yl)-5-methyl-1H-pyrazole-3-carboxamide]	95 nM	352 nM
Cc1cc(C(N)=O)nn1-c1ccc2c(ccn2Cc2ccc(-c3cnn(C)c3)cc2)c1 [Example 1-19, 5-methyl-1-(1-(4-(1-methyl-1H-pyrazol-4-yl)benzyl)-1H-indol-5-yl)-1H-pyrazole-3-carboxamide]	140 nM	500 nM
Cc1cc(C(N)=O)nn1-c1ccc2c(ccn2Cc2ccc(-c3cccc(S(N)(=O)=O)c3)cc2)c1 [Example 1-20, 5-methyl-1-(1-((3′-sulfamoyl-[1,1′-biphenyl]-4-yl)methyl)-1H-indol-5-yl)-1H-pyrazole-3-carboxamide]	126 nM	> 10000 nM
Cc1cc(C(N)=O)nn1-c1ccc2c(ccn2Cc2ccc(-c3ccc4cc[nH]c4c3)cc2)c1 [Example 1-21, 1-(1-(4-(1H-indol-6-yl)benzyl)-1H-indol-5-yl)-5-methyl-1H-pyrazole-3-carboxamide]	420 nM	2970 nM
Cc1cc(C(N)=O)nn1-c1ccc2c(ccn2Cc2ccc(-c3ccc4cnn(C)c4c3)cc2)c1 [Example 1-22, 5-methyl-1-(1-(4-(1-methyl-1H-indazol-6-yl)benzyl)-1H-indol-5-yl)-1H-pyrazole-3-carboxamide]	167 nM	507 nM
Cc1cc(C(N)=O)nn1-c1ccc2c(ccn2Cc2ccc(-c3ccc(N(C)C)nc3)cc2)c1 [Example 1-23, 1-(1-(4-(6-(dimethylamino)pyridin-3-yl)benzyl)-1H-indol-5-yl)-5-methyl-1H-pyrazole-3-carboxamide]	93 nM	293 nM
COc1cc(-c2ccc(Cn3ccc4cc(-n5nc(C(N)=O)cc5C)ccc43)cc2)ccn1 [Example 1-24, 1-(1-(4-(2-methoxypyridin-4-yl)benzyl)-1H-indol-5-yl)-5-methyl-1H-pyrazole-3-carboxamide]	123 nM	349 nM
Cc1cc(C(N)=O)nn1-c1ccc2c(ccn2Cc2ccc(-c3ccc4c(c3)CCNC4=O)cc2)c1 [Example 1-25, 5-methyl-1-(1-(4-(1-oxo-1,2,3,4-tetrahydroisoquinolin-6-yl)benzyl)-1H-indol-5-yl)-1H-pyrazole-3-carboxamide]	56 nM	197 nM
Cc1cc(C(N)=O)nn1-c1ccc2c(ccn2Cc2ccc(-c3ccc(N)cc3)cc2)c1 [Example 1-26, 1-(1-((4′-amino-[1,1′-biphenyl]-4-yl)methyl)-1H-indol-5-yl)-5-methyl-1H-pyrazole-3-carboxamide]	129 nM	> 10000 nM
Cc1cc(C(N)=O)nn1-c1ccc2c(ccn2Cc2ccc(-c3ccc(F)cc3)cc2)c1 [Example 1-27, 1-(1-((4′-fluoro-[1,1′-biphenyl]-4-yl)methyl)-1H-indol-5-yl)-5-methyl-1H-pyrazole-3-carboxamide]	229 nM	> 10000 nM
COc1ncc(-c2ccc(Cn3ccc4cc(-n5nc(C(N)=O)cc5C)ccc43)cc2)cn1 [Example 1-28, 1-(1-(4-(2-methoxypyrimidin-5-yl)benzyl)-1H-indol-5-yl)-5-methyl-1H-pyrazole-3-carboxamide]	223 nM	1170 nM
Cc1cc(C(N)=O)nn1-c1ccc2c(ccn2Cc2ccc(-c3cnc(N)nc3)cc2)c1 [Example 1-29, 1-(1-(4-(2-aminopyrimidin-5-yl)benzyl)-1H-indol-5-yl)-5-methyl-1H-pyrazole-3-carboxamide]	340 nM	774 nM
COc1ccc(-c2ccc(Cn3ccc4cc(-n5nc(C(N)=O)cc5C)ccc43)cc2)cc1 [Example 1-30, 1-(1-((4′-methoxy-[1,1′-biphenyl]-4-yl)methyl)-1H-indol-5-yl)-5-methyl-1H-pyrazole-3-carboxamide]	216 nM	952 nM
Cc1cc(C(N)=O)nn1-c1ccc2c(ccn2Cc2ccc(-c3ccc4c(c3)CC(=O)N4)cc2)c1 [Example 1-31, 5-methyl-1-(1-(4-(2-oxoindolin-5-yl)benzyl)-1H-indol-5-yl)-1H-pyrazole-3-carboxamide]	55 nM	138 nM
Cc1cc(C(N)=O)nn1-c1ccc2c(ccn2Cc2ccc(-c3ccc(CO)cc3)cc2)c1 [Example 1-32, 1-(1-((4′-(hydroxymethyl)-[1,1′-biphenyl]-4-yl)methyl)-1H-indol-5-yl)-5-methyl-1H-pyrazole-3-carboxamide]	205 nM	578 nM
Cc1cc(C(N)=O)nn1-c1ccc2c(ccn2Cc2ccc(-c3ccc(NS(C)(=O)=O)cc3)cc2)c1 [Example 1-33, 5-methyl-1-(1-((4′-(methylsulfonamido)-[1,1′-biphenyl]-4-yl)methyl)-1H-indol-5-yl)-1H-pyrazole-3-carboxamide]	82 nM	351 nM
Cc1cc(C(N)=O)nn1-c1ccc2c(ccn2Cc2ccc(-c3ccc(CN)cc3)cc2)c1 [Example 1-34, 1-(1-((4′-(aminomethyl)-[1,1′-biphenyl]-4-yl)methyl)-1H-indol-5-yl)-5-methyl-1H-pyrazole-3-carboxamide]	248 nM	743 nM
Cc1cc(C(N)=O)nn1-c1ccc2c(ccn2Cc2ccc(-c3ccc(C(=O)N(C)C)cc3)cc2)c1 [Example 1-35, 1-(1-((4′-(dimethylcarbamoyl)-[1,1′-biphenyl]-4-yl)methyl)-1H-indol-5-yl)-5-methyl-1H-pyrazole-3-carboxamide]	60 nM	217 nM
Cc1cc(C(N)=O)nn1-c1ccc2c(ccn2Cc2ccc(-c3cnc(N(C)C)nc3)cc2)c1 [Example 1-36, 1-(1-(4-(2-(dimethylamino)pyrimidin-5-yl)benzyl)-1H-indol-5-yl)-5-methyl-1H-pyrazole-3-carboxamide]	477 nM	1050 nM
Cc1cc(C(N)=O)nn1-c1ccc2c(ccn2Cc2ccc(-c3ccc(CN4CCOCC4)cc3)cc2)c1 [Example 1-37, 5-methyl-1-(1-((4′-(morpholinomethyl)-[1,1′-biphenyl]-4-yl)methyl)-1H-indol-5-yl)-1H-pyrazole-3-carboxamide]	75 nM	206 nM
Cc1cc(C(N)=O)nn1-c1ccc2c(ccn2Cc2ccc(-c3ccc(C(=O)NCCN4CCOCC4)cc3)cc2)c1 [Example 1-38, 5-methyl-1-(1-((4′-((2-morpholinoethyl)carbamoyl)-[1,1′-biphenyl]-4-yl)methyl)-1H-indol-5-yl)-1H-pyrazole-3-carboxamide]	78 nM	240 nM
